Experimental data published in publication PMC11566078, “Bactericidal activities and biochemical features of 16 antimicrobial peptides against bovine-mastitis causative pathogens” (Veterinary Research, 2024).
Like-named read-outs stand apart in the source and are kept apart here. Where no end group is shown, it is not given here.

Columns and labels:
bovine erythrocytes = experiment: Haemolytic activity; format: cell-based; details: OD 410 nm, repeated three times
Method: The experimental procedures were conducted in accordance with the guidelines approved by the Institutional Animal Care and Use Committee (IACUC) of Konkuk University, Seoul, Korea, and bovine blood was collected from a cow at a local farm using a BD Vacutainer® Sodium Heparin (BD Bioscience) to analyse haemolytic activity. Plasma was removed from the whole blood by centrifugation. Erythrocytes were washed thrice with phosphate-buffered saline (PBS, pH 7.4) and resuspended in PBS at a concentration of 2% (v/v). Subsequently, 100 µL of the erythrocyte suspension was added to each well of a 96-well microtiter plate. The plate contained an equal volume of the peptides in PBS with different concentrations of 10, 20, 40, 80, and 160 μg/mL. Triton-X 100 (1%) and PBS were used as positive and negative controls, respectively. Plates were incubated at 37 °C for 1 h. The release of haemoglobin into the supernatant was monitored by measuring the change in OD at 410 nm using a microplate reader (xMark™ spectrophotometer; Bio-Rad). Results from three independent experiments were pooled. Hemolysis was calculated using the formula: HemolyticPercentage(%)=100×(ODpeptide-ODnegative)/(ODpositive-ODnegative)
All experiments were carried out in triplicate.

[1] = test system: Staphylococcus chromogenes; experiment: microbe, parasite or virus in culture; format: cell-based; details: 6 h
Method: (§1) All plates were cultivated aerobically.
(§2) Experiments were conducted in triplicate.

[2] = test system: Glutamicibacter halophytocola; experiment: microbe, parasite or virus in culture; format: cell-based; details: 6 h
Method: as §1, §2

Streptococcus uberis = experiment: microbe, parasite or virus in culture; format: cell-based; details: 6 h
Method: as §1, §2

[3] = test system: Staphylococcus epidermidis; experiment: microbe, parasite or virus in culture; format: cell-based; details: 6 h
Method: as §1, §2

Corynebacterium simulans = experiment: microbe, parasite or virus in culture; format: cell-based; details: 6 h
Method: as §1, §2

Staphylococcus xylosus = experiment: microbe, parasite or virus in culture; format: cell-based; details: 6 h
Method: as §1, §2

[4] = test system: field isolates from milk with high SCCs; details: all field isolates except A. hydrophila; range stated for the three peptides
Method: The minimum inhibitory concentration (MIC) was determined by following the manufacturer’s protocol and Clinical and Laboratory Standards Institute (CLSI) guidelines (2018) using a colourimetric method specified by the Microbial Viability Assay Kit-WST (Dojindo, Kumamoto, Japan). Four colonies of each bacterium were inoculated into 5 mL of LB medium and incubated at 37 °C for 4–6 h. The cells were then washed twice with sterile saline (0.9% NaCl) and seeded into a single well of a 96-well plate at a density of 1.5 × 10^5 cells/well, adjusting by McFarland standard 0.5. Subsequently, 180 µL/well of fresh MH broth (BD Bioscience) was added to the plate. Ampicillin, chloramphenicol, and gentamicin sulfate were used as controls for antimicrobial activity.
Different concentrations of each peptide and reference antibiotics (up to 40 µg/mL) were serially diluted in 10 µL of MH broth and added to each well. The plate was incubated at 37 °C for 6 h, using BHI broth to culture slow-growing fastidious strains, including E. faecalis, A. hydrophila, C. simulans, G. halophytocola, and streptococci. Cation-adjusted Mueller Hinton II broth (CAMHB) was employed to cultivate P. aeruginosa. Afterwards, 10 µL of the colouring reagent was added, and cells were incubated at 37 °C for 2 h. UV absorbance was measured for each well at 450 nm using a microplate spectrophotometer (xMark spectrophotometer; Bio-Rad, Hercules, CA, USA). The MIC values were determined when the absorbance difference between treatments and blanks (media and colouring reagent only) decreased to < 0.05. Experiments were conducted in triplicate.

PK15 cells [5] = experiment: Cytotoxicity, WST-1 cell viability; details: 24 h, 37 °C, repeated three times
Method: (§5) Human keratinocytes (HaCaT) and pig kidney fibroblast cells (PK15, ATCC CCL-33) were cultured in Dulbecco’s modified Eagle’s medium (DMEM; Hyclone™, Logan, UT, USA) and supplemented with 10% foetal bovine serum (FBS; Hyclone™, Logan, UT, USA), 1% penicillin–streptomycin (Hyclone™) at 37 °C, and 5% CO2 up to 80% confluence. Cell substratum adhesion was disrupted using Accutase (Innovative Cell Technologies, San Diego, CA, USA). A total of 4 × 10^4 cells were incubated for 24 h at 37 °C and 5% CO2 in each well of a 96-well plate containing 64 and 160 µg/mL of each peptide.
(§6) A positive control for complete cell lysis was established using Triton-X100 (1%), and untreated cells were used as the negative control. After incubation, the medium was removed from the wells and replaced with 10 µL of colouring solution (Cell Proliferation Reagent WST-1™) and 100 µL of DMEM (Hyclone™), per the manufacturer’s protocol. Each well absorbance was measured at 440 nm (peptide-treated and control) and 650 nm (background). These measurements were recorded as the optical density (OD) using a microplate reader (xMark™ spectrophotometer; Bio-Rad, CA, USA). Cell viability was calculated using the following equation: CellViability(%)=100×(ODpeptide-ODbackground)/(ODnegative-ODbackground)
(§7) All experiments were performed in triplicate.

[6] = test system: all bacterial strains in the panel and field isolates from milk; format: cell-based; details: against all bacterial strains in the panel and field isolates from milk
Method: (§3) The standard bacterial strains used for antimicrobial activity assays include Staphylococcus aureus ATCC (American Type Culture Collection, Manassas, VA, USA) 6538, Bacillus cereus ATCC 10876, Enterococcus faecalis ATCC 29212, Streptococcus agalactiae ATCC 27956, Streptococcus dysgalactiae ATCC 27957, Streptococcus equi subsp. zooepidemicus ATCC 43079, Escherichia coli ATCC 25922, and Pseudomonas aeruginosa ATCC 27853. Most bacterial strains were cultured in LB medium except for E. faecalis and streptococci, which were cultivated in brain heart infusion (BHI) broth (BD Bioscience).
as §1, §2

E. coli (ATCC 25922) [7] = format: cell-based, Escherichia coli
Method: as §2
(§4) The MICs against E. coli (ATCC 25922) for cc-CATH3, ML-CATH, and PD-CATH in 150 mM NaCl and different pH (pH 5, 6, and 7) that were adjusted using acetic acid (Sigma Aldrich) were determined as described above. For serum stability assay, each AMP at four different concentrations was dissolved in 50% (v/v) FBS (Hyclone™) and incubated at 37 °C for 0, 60, and 120 min, respectively. As described in a previous study, ΔHg-CATH was used as a control for serum sensitivity. The antimicrobial activity of cc-CATH3, ML-CATH, and PD-CATH against E. coli was assessed for each condition as above. All experiments were conducted in triplicate.

HaCaT cells [8] = experiment: Cytotoxicity, WST-1 cell viability; details: 24 h, 37 °C, repeated three times
Method: as §5, §6, §7

[9] = test system: eight standard bacterial strains; format: cell-based; details: all eight standard strains; range stated for the three peptides
Method: as §3, with “[…]” for “agalactiae ATCC”, “Bioscience). […] Experiments were conducted in triplicate.” for “Bioscience).”

[10] = test system: Enterococcus faecalis ATCC 29212; experiment: microbe, parasite or virus in culture; format: cell-based; details: ATCC 29212, 6 h
Method: as §3, with “[…]” for “agalactiae ATCC”, “Bioscience). […] Experiments were conducted in triplicate.” for “Bioscience).”

[11] = test system: Staphylococcus aureus ATCC 6538; experiment: microbe, parasite or virus in culture; format: cell-based; details: ATCC 6538, 6 h
Method: as §3, with “[…]” for “agalactiae ATCC”, “Bioscience). […] Experiments were conducted in triplicate.” for “Bioscience).”

[12] = test system: Streptococcus equi subsp. zooepidemicus ATCC 43079; experiment: microbe, parasite or virus in culture; format: cell-based; details: ATCC 43079, 6 h
Method: as §3, with “[…]” for “agalactiae ATCC”, “Bioscience). […] Experiments were conducted in triplicate.” for “Bioscience).”

[13] = test system: Streptococcus dysgalactiae ATCC 27957; experiment: microbe, parasite or virus in culture; format: cell-based; details: ATCC 27957, 6 h
Method: as §3, with “[…]” for “agalactiae ATCC”, “Bioscience). […] Experiments were conducted in triplicate.” for “Bioscience).”

[14] = test system: Pseudomonas aeruginosa ATCC 27853; experiment: microbe, parasite or virus in culture; format: cell-based; details: ATCC 27853, 6 h
Method: as §3, with “[…]” for “agalactiae ATCC”, “Bioscience). […] Experiments were conducted in triplicate.” for “Bioscience).”

[15] = test system: Streptococcus agalactiae ATCC 27956; experiment: microbe, parasite or virus in culture; format: cell-based; details: ATCC 27956, 6 h
Method: as §3, with “[…]” for “agalactiae ATCC”, “Bioscience). […] Experiments were conducted in triplicate.” for “Bioscience).”

[16] = test system: Bacillus cereus ATCC 10876; experiment: microbe, parasite or virus in culture; format: cell-based; details: ATCC 10876, 6 h
Method: as §3, with “[…]” for “agalactiae ATCC”, “Bioscience). […] Experiments were conducted in triplicate.” for “Bioscience).”

E. coli (ATCC 25922) [17] = format: in vitro ADME, Escherichia coli
Method: as §4
Figure 2 Changes in the antibacterial activity of cc-CATH3, ML-CATH, and PD-CATH after incubation with naïve serum. cc-CATH3, ML-CATH, and PD-CATH peptides were incubated in 50% (v/v) FBS each for 0, 60, and 120 min before applying to antimicrobial activity assay against E. coli (ATCC 25922). The antimicrobial activity was determined by measuring bacterial growth at OD 450 nm. The X and Y axes indicate peptide concentration and absorbance at 450 nm, respectively. Samples containing 50% FBS in the absence of the peptides indicate a control for bacterial growth without AMP treatments. The antimicrobial activity of cc-CATH3 (A), ML-CATH (B), and PD-CATH (C) after the treatment of FBS-incubated AMPs was shown.

Aeromonas hydrophila = experiment: microbe, parasite or virus in culture; format: cell-based; details: 6 h
Method: as §1, §2

PK15 cells [18] = test system: PK15 cells
Method: as §5, §6, §7

HaCaT cells [19] = test system: HaCaT cells
Method: as §5, §6, §7

[20] = 10 μg/mL, 2% (v/v) erythrocytes in PBS pH 7.4, 37 °C 1 h, mean ± SD
[21] = 20 μg/mL, 2% erythrocytes in PBS pH 7.4, 37 °C 1 h
[22] = 40 μg/mL, 2% erythrocytes in PBS pH 7.4, 37 °C 1 h
[23] = 80 μg/mL, 2% erythrocytes in PBS pH 7.4, 37 °C 1 h

Method for PK15 and HaCaT cells: as §5, §6, §7

Substance	Haemolytic activity against bovine erythrocytes (bovine erythrocytes; [20])	Haemolytic activity against bovine erythrocytes (bovine erythrocytes; [21])	Haemolytic activity against bovine erythrocytes (bovine erythrocytes; [22])	Haemolytic activity against bovine erythrocytes (bovine erythrocytes; [23])	Minimal inhibitory concentration, Staphylococcus chromogenes [1]	Minimal inhibitory concentration, Glutamicibacter halophytocola [2]	Minimal inhibitory concentration, Streptococcus uberis (Streptococcus uberis)	Minimal inhibitory concentration, Staphylococcus epidermidis [3]	Minimal inhibitory concentration, Corynebacterium simulans (Corynebacterium simulans)	Minimal inhibitory concentration, Staphylococcus xylosus (Staphylococcus xylosus)	MICs, range over field isolates [4]	Cell viability ± SD, PK15 (PK15 cells [5]; 64 μg/mL peptide)	Cell viability ± SD, PK15 (PK15 cells [5]; 160 μg/mL peptide)	minimum inhibitory concentration, range over strains [6]	Cell viability ± SD, HaCaT (HaCaT cells [8]; 64 μg/mL peptide)	Cell viability ± SD, HaCaT (HaCaT cells [8]; 160 μg/mL peptide)	MICs, range over all bacterial species in the test panel [9]	cell viability of PK15 and HaCaT (PK15 and HaCaT cells)	Minimal inhibitory concentration, Enterococcus faecalis [10]	Minimal inhibitory concentration, Staphylococcus aureus [11]	also measured
LNPLIKAGIFILKHRRPIGRGIEITGRGIKKFFSK [ML-CATH]	5.8 ± 0.4%	6.4 ± 0.8%	7.0 ± 0.8%	7.7 ± 0.2%	2 (0.5) μg/mL	2 (0.5) μg/mL	3 (0.8) μg/mL	2 (0.5) μg/mL	1 (0.3) μg/mL	2 (0.5) μg/mL	0.8 to 5 µg/mL	96.2 ± 0.4%	38.0 ± 2.2%	0.2 to 10.3 µM	99.7 ± 0.9%	98.0 ± 1.5%	2 to 42 µg/mL	91.1 ± 1.8% to 100.6 ± 0.4	5 (1.3) μg/mL	2 (0.5) μg/mL	Haemolytic activity against bovine erythrocytes (bovine erythrocytes; 160 μg/mL, 2% erythrocytes in PBS pH 7.4, 37 °C 1 h): 11.8 ± 4.5%; MIC against E. coli in more acidic conditions (E. coli (ATCC 25922) [7]; ATCC 25922, pH 5): 2 µg/mL; Minimal inhibitory concentration, Streptococcus equi subsp. zooepidemicus [12]: 9 (2.3) μg/mL; Minimal inhibitory concentration, Streptococcus dysgalactiae [13]: 14 (3.5) μg/mL; Minimal inhibitory concentration, Pseudomonas aeruginosa [14]: 42 (10.6) μg/mL; Minimal inhibitory concentration, Streptococcus agalactiae [15]: 8 (2.0) μg/mL; Minimal inhibitory concentration, Bacillus cereus [16]: 3 (0.8) μg/mL; antibacterial activity after incubation with serum (E. coli (ATCC 25922) [17]): remained unaffected under all the tested conditions
RVRRFWPLVPVAINTVAAGINLYKAIRRK [cc-CATH3]	0.0 ± 0.1%	0.0 ± 0.1%	0.4 ± 0.2%	0.8 ± 0.1%	3 (0.9) μg/mL	2 (0.6) μg/mL	4 (1.2) μg/mL	2 (0.6) μg/mL	0.8 (0.2) μg/mL	2 (0.6) μg/mL	0.8 to 5 µg/mL	91.1 ± 1.8%	32.7 ± 3.5%	0.2 to 10.3 µM	100.6 ± 0.4%	90.1 ± 4.8%	2 to 42 µg/mL	91.1 ± 1.8% to 100.6 ± 0.4	5 (1.5) μg/mL	2 (0.6) μg/mL	Minimal inhibitory concentration, Aeromonas hydrophila (Aeromonas hydrophila): > 160 (47.4) μg/mL; Minimal inhibitory concentration against E. coli, 150 mM NaCl (E. coli (ATCC 25922) [7]; ATCC 25922): 1.6 µM; Minimal inhibitory concentration, Streptococcus equi subsp. zooepidemicus [12]: 5 (1.5) μg/mL; Minimal inhibitory concentration, Streptococcus dysgalactiae [13]: 7 (2.0) μg/mL; Minimal inhibitory concentration, Pseudomonas aeruginosa [14]: 4 (1.28) μg/mL; Minimal inhibitory concentration, Streptococcus agalactiae [15]: 4 (1.28) μg/mL; Minimal inhibitory concentration, Bacillus cereus [16]: 4 (1.28) μg/mL; antibacterial activity after incubation with serum (E. coli (ATCC 25922) [17]): significantly affected in concentrations lower than 3 × MIC
Triton X-100 [Triton X-100 (1%)]																					Cell viability ± SD, PK15 (PK15 cells [18]): 13.3 ± 0.1%; Cell viability ± SD, HaCaT (HaCaT cells [19]): 13.0 ± 0.4%
